Experimental data as given in paper PMC10313827 (2023).

Test system: RhoBAST (RNA, aptamer) GGAACCUCCGCGAAAGCGGUGAAGGAGAGGCGCAAGGUUAACCGCCUCAGGUUCC
Assay: fluorescence titration, fixed dye, aptamer varied
Details: 125 mM KCl, 1 mM MgCl2; 20 mM HEPES pH 7.4, 0.05% Tween 20, 25 °C, 10 nM dye

Structure (SMILES): CN(C)S(=O)(=O)N1C(=O)c2ccccc2C12c1ccc(N3CCC3)cc1Oc1cc(N3CCC3)ccc12
- KD: 100 ± 8 nM
